According to US7737126B2, “Purine derivative” (Glaxo Group Limited, priority 2004, dated 2010):

Experiments:
[1] = biological target: T1, HSA (Homo sapiens, UniProt P02768); test: HSA binding by immobilised HSA HPLC column; assay type: in vitro ADME; settings: for logK measured / % HSA measured: HSA column, typical data; for logK measured: derived from the calibration curve
T1 construct: purchased Chromtech (Cheshire, UK)
Description: Instrument: Agilent HP1100 HPLC instruments were used throughout.
HPLC columns: Chromtech Immobilised HSA HPLC column 50×3 mm was purchased from Chromtech (Cheshire, UK).
Mobile phase and detection: The mobile phase A was 50 mM pH 7.4 ammonium acetate solution, while mobile phase B was 2-Propanol (HPLC grade, Runcorn, UK). The mobile phase flow rate was 1.8 ml/min. The column temperature was kept at 30° C. The gradient profile and run time were the same with each column, the linear gradient from 0 to 30% 2-propanol was applied from 0 to 3 minutes. From 3 to 10 minutes, the mobile phase composition was constant 30% 2-propanol and 70% 50-mM ammonium acetate. […] Each separation was stopped after 15 minutes.
Detection: Chromatograms were recorded at 230 and 254 nm by a diode array UV absorption detector at room temperature.

[2] = system: plasma protein; test: Literature % plasma protein binding of calibration compounds; settings: linear conversion of literature % PPB
Description: Calibration of the protein columns: The column performance check and the calibration have been performed before the analysis of every 96 well plate. The compounds used for the column calibrations were dissolved separately in 0.5 mg/ml concentration in 50% 2-propanol and 50% pH 7.4 ammonium acetate solution mixtures.
The literature % PPB (bound in plasma) values were converted to the linear free energy related logk values (logarithm of apparent affinity constant) using the following equation.

[3] = biological target: T2, human adenosine A2B receptor (Homo sapiens, UniProt P29275); test: Agonist activity against adenosine A2B receptor (CHO or yeast assay); assay type: cell-based; settings: A2A over A2B
T2 construct: expressed in transfected cells; host or cells: CHO cells or yeast cells
T2 sequence (P29275 1-332): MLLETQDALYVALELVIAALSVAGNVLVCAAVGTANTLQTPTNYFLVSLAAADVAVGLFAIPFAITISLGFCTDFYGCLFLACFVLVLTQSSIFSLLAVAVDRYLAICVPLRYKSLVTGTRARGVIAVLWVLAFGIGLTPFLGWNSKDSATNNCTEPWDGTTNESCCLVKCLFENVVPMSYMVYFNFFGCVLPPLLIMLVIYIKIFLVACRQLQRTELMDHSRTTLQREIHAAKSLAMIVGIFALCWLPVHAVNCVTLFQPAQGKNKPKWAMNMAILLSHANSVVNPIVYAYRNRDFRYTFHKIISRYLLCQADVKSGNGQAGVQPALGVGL
Description: (§1) 1) In Vitro: Agonist Activity Against Adenosine A1, A2A, A2B and A3 Receptors.
(§2) The agonist potency and selectivity of compounds against human adenosine receptors is determined using Chinese hamster ovary (CHO) cells or yeast cells transfected with the gene for the relevant receptor.
(§3) Two methods may be used in the CHO cells. (i) For the SPAP assay, cells are also transfected with cyclic AMP (cAMP) response elements promoting the gene for secreted placental alkaline phosphatase (SPAP). Changes in cAMP are measured as changes in the levels of SPAP. (ii) The DiscoveRx assay is an enzyme complementation assay that involves two fragments of β-galactosidase, enzyme acceptor (EA) and enzyme donor (ED). […] For both methods the effect of test compounds is determined by their effects on basal levels of cAMP (A2A and A2B) or on forskolin enhanced cAMP (A1 and A3).
(§4) For the yeast assay, receptor stimulation causes activation of a reporter gene, namely FUS1-HIS3, resulting in histidine production which is essential for cell growth. […] This response is measured from the production of the exoglucanase, an enzyme secreted constitutively by yeast cells.
(§5) In all of the in vitro assays the activity of test compounds is expressed as a ratio to that of the non-selective adenosine receptor agonist, N-ethyl carboxamide adenosine (NECA).

[4] = Cardiovascular model (therapeutic index); assay type: in vivo, rat; settings: anaesthetised male Wistar rats, administered into the trachea
Description: 3) Therapeutic Index (TI) Cardiovascular Model: Male Wistar rats were anaesthetised with chloralose/pentobarbitone and the jugular vein, left carotid artery and trachea were cannulated. The arterial cannula was connected to a transducer for the continuous measurement of blood pressure and heart rate. Compound (or vehicle) was administered into the trachea in a 100 ul volume, and the dose of test compound giving a 20% increase in blood pressure and heart rate (ED20) was determined. The TI for a test compound is calculated as the ratio of the ED20 in the cardiovascular model compared with the ED50 in the LPS model.

[5] = biological target: T3, human adenosine A3 receptor (Homo sapiens, UniProt P0DMS8); test: Agonist activity against adenosine A3 receptor (CHO or yeast assay); assay type: cell-based; settings: A2A over A3
T3 construct: expressed in transfected cells; host or cells: CHO cells or yeast cells
T3 sequence (P0DMS8 1-318): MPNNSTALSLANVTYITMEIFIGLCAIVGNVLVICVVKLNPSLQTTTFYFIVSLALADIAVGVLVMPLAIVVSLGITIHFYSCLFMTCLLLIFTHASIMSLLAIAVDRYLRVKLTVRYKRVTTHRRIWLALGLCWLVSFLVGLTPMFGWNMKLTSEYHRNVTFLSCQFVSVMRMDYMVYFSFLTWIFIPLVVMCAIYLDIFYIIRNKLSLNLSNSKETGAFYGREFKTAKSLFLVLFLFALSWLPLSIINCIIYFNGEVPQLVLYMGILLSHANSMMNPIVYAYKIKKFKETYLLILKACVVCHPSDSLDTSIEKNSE
Description: as §1, §2, §3, §4, §5

[6] = biological target: T4, human adenosine A1 receptor (Homo sapiens, UniProt P30542); test: Agonist activity against adenosine A1 receptor (CHO or yeast assay); assay type: cell-based; settings: A2A over A1
T4 construct: expressed in transfected cells; host or cells: CHO cells or yeast cells
T4 sequence (P30542 1-326): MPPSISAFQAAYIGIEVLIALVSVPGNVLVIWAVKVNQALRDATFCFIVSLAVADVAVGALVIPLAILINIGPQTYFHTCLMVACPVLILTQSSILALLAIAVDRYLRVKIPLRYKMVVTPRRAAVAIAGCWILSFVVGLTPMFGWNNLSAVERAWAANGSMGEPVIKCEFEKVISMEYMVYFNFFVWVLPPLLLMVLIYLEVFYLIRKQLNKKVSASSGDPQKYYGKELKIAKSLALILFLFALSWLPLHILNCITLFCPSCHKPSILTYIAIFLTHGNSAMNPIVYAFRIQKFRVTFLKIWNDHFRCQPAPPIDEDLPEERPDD
Description: as §1, §2, §3, §4, §5

[7] = system: neutrophil accumulation; test: In vivo anti-inflammatory LPS model; set-up: species or system rat; settings: male CD albino rats, intratracheal, dose of 30 μg/kg or less, lung lavage 4 h after LPS challenge
Description: In Vivo Anti-Inflammatory Agonist Activity LPS Model: Test compound was administered to male CD albino rats prior to exposure to LPS. Compound (or vehicle) was injected in a 200 ul volume into the trachea , via a cannula placed trans-orally, whilst the animals were under isoflurane anaesthesia. After a recovery period of 30 min, rats were placed in a chamber and exposed to an aerosol of E. Coli-derived LPS for 15 min. Four hours after LPS challenge the rats were killed, the lungs lavaged, and both total and differential cell counts determined.

T1 sequence (P02768 25-609): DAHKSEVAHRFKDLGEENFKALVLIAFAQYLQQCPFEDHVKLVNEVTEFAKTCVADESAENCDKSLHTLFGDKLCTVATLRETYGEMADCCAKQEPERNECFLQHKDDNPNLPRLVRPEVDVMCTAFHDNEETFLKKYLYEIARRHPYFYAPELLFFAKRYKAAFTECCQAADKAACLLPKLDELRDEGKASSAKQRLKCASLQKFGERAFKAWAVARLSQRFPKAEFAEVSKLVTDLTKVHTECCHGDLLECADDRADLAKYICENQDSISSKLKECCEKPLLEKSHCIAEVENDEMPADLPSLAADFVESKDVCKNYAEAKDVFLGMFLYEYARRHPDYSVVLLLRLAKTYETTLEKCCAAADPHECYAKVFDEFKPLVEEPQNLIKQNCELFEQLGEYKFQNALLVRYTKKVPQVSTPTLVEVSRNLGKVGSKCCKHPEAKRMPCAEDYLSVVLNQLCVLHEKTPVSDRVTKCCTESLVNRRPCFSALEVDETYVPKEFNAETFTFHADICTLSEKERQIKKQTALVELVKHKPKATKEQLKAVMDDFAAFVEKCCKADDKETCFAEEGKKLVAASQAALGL

Row | Structure (SMILES) | logK measured [1] | % HSA measured [1] [%] | lit logK [2] | other results
1 | O=C1CN=C(c2ccccn2)c2cc(Br)ccc2N1 [Bromazepam] | 0.38 | 71.2 | 0.17 | 
2 | CCCC1O[C@@H]2C[C@H]3[C@@H]4CCC5=CC(=O)C=C[C@]5(C)[C@H]4[C@@H](O)C[C@]3(C)[C@]2(C(=O)CO)O1 (stereo partly drawn) [Budesonide] | 0.70 | 84.2 | 0.83 | 
3 | NC(=O)N1c2ccccc2C=Cc2ccccc21 [Carbamazepine] | 0.50 | 76.8 | 0.46 | 
4 | O=C(O)Cc1ccccc1Nc1c(Cl)cccc1Cl [Diclofenac] |  |  | 1.92 | 
5 | CCn1nnc([C@H]2O[C@@H](n3cnc4c(N[C@H]5CC[C@H](Nc6nc(NCCc7cn(C)cn7)nc7c6ncn7[C@@H]6O[C@H](c7nnn(CC)n7)[C@@H](O)[C@H]6O)CC5)nc(NCCc5cn(C)cn5)nc43)[C@H](O)[C@@H]2O)n1.O=CO [Formic acid—(2R,3R,4S,5R,2′R,3′R,4′S,5′R)-2,2′-{trans-1,4-cyclohexanediylbis[imino(2-{[2-(1-methyl-1H-imidazol-4-yl)ethyl]amino}-9H-purine-6,9-diyl)]}bis[5-(2-ethyl-2H-tetrazol-5-yl)tetrahydro-3,4-furandiol] (4:1)] |  |  |  | selectivity for A2A than A2B [3]: greater than 100 fold; binding to HSA ([1]; immobilised HSA HPLC column, pH 7.4): greater than 90%; dose giving a 20% increase in blood pressure and heart rate (ED20) [4]: about 7 μg/kg; selectivity for A2A than A3 [5]: greater than 100 fold; selectivity for A2A than A1 [6]: greater than 100 fold; reduction in neutrophil accumulation [7]: greater than 50%
6 | COC(=O)C1=C(C)NC(C)=C(C(=O)OCCN(C)Cc2ccccc2)C1c1cccc([N+](=O)[O-])c1 (stereo not drawn) [Nicardipine] | 1.38 | 97.0 |  | 
7 | CNC(=C[N+](=O)[O-])NCCSCc1csc(CN(C)C)n1 [Nizatidine] | −0.35 | 31.1 | −0.28 | 
8 | CN1C(C(=O)Nc2ccccn2)=C(O)c2ccccc2S1(=O)=O [Piroxicam] | 1.10 | 93.6 | 1.16 | 
